Legend:
[1] = tested on: breast cancer PDX Ma15169; assay: Tumor growth of breast cancer PDX Ma15169 in humanized NOG-EXL mice; type: in vivo; settings: for rating according to RECIST criteria: based on T/C at last day of the study (day 183); for T/C value: last day of the study (day 183), tumor volume treated-to-control
Method: The study was designed to determine the response of the breast cancer PDX Ma15169 to treatment with Paclitaxel single agent, Balixafortide single agent and the combination of both in humanized NOG-EXL mice. Humanized NOG-EXL mice bearing the breast cancer PDX Ma15169 were treated with Paclitaxel and Balixafortide according to Table 1. Ma15169 is a patient derived xenograft (PDX) that was from a patient with an invasive ductal carcinoma (ypT1a ypNla R0 G3 L1 V1). The patient tumour was ER/PR as well as Her-2 negative. The tumour material was expanded in 9 donor mice (NOG, Taconic; https://www.taconic.com/mouse-model/ciea-nog-mouse) and fragments of about 10mm3 were each implanted subcutaneously into the flank of 50 humanized NOG-EXL mice; at this time, the passage number of Ma15169 was #4. Table 1: Course of events during the study
Female NOG-EXL mice with an age of about 4 weeks were used for the constitution of human immune cells. 24 hours before CD34+ cell inoculation mice were irradiated with 1Gy. Human CD34+ cells were isolated from fresh cord blood within the laboratories of EPO (Experimental Pharmacology & Oncology Berlin-Buch GmbH, Berlin-Buch, Germany) and preserved in liquid nitrogen until use. For the study MV16883 a pool of 5 different donors (CB AG 101, CB AG 97, CB KR 104, CB AG 106, CB AG 107) prepared. After thawing the cells were washed with PBS, pooled and washed again followed by Trypan blue staining and cell counting using Neubauer chamber. A total of 5x10^4 vital cells were resuspended in 200µl PBS and injected intravenously into the tail vain of all mice.
Determination of human immune cells by FACS was performed at days 46, 84 and 115 after cell inoculation (leucocytes CD45+, B cells CD19+, T cells CD3+, NK cells CD56+/CD16+ and monocytes CD14+; Human Immunophenotyping 8-color-Kit (Miltenyi)). The mice were weighed weekly and monitored for general health two times weekly.
The PDX Ma15169 is maintained by EPO (Experimental Pharmacology & Oncology Berlin-Buch GmbH, Berlin-Buch, Germany) as in vivo passage; the passage number for this study was #4. Donor mice (female NOG; Taconic) with tumors of about 1cm3 were used for the preparation of this study MV16883.
After removal of the tumor tissue from donor mice, the tumors were cut into fragments (2-3 mm diameter - approximately 10mm3) and placed in cooled RPMI 1640 culture medium until s.c. implantation within 30 minutes. The humanized NOG-EXL mice were anaesthetized with Etomidate and received a small incision in the skin of the left flank. The tumor fragments (one fragment/mouse) were implanted with tweezers and the incision closed with a suture clip (#310417, Covetrus GmbH). The clips were removed after seven days and mice controlled two times weekly by means of palpation. The implantation of tumor fragments was performed 122 days after the inoculation of CD34+ cells.
Tumor bearing mice were stratified into 4 treatment groups according to their tumor volumes at day 154 post CD34+ cell inoculation (32 days after tumor implantation). […] During stratification the animals were individually marked by earmarks.
Paclitaxel (Taxomedac™ comprising paclictaxel, citric acid, ethanol and PEG (30-50) castor oil) was given i.v. at a dose of 10 mg/kg twice weekly. Balixafortide was given s.c. at a dose of 20 mg/kg once daily for the first 5 days and twice daily for 5 days followed by treatment breaks of 2 days until the end of treatment period (Fig. 1). Total treatment duration was 29 days. […]

human CXCR4 receptor = assay: In vitro receptor binding studies (CXCR4)
Source text: (§1) In a particular preferred embodiment the peptidic CXCR4 inhibitor is cyclo(-Tyr-His-Ala-Cys-Ser-Ala-^DPro-Dab-Arg-Tyr-Cys-Tyr-Gln-Lys-^DPro-Pro-) having a disulfide bond between Cys^4 and Cys^11, or pharmaceutically acceptable sals thereof. Cyclo(-Tyr-His-Ala-Cys-Ser-Ala-^DPro-Dab-Arg-Tyr-Cys-Tyr-Gln-Lys-^DPro-Pro-) having a disulfide bond between Cys^4 and Cys^11 is also referred as POL6326 herein or balixafortide. POL6326 is a cyclic synthetic peptide consisting of 16 amino acids and an antagonist of the highly conserved chemokine receptor CXCR4.

[2] = tested on: other potential target receptors; assay: In vitro receptor binding studies (other receptors)
Source text: as §1

SMILES	rating according to RECIST criteria [1]	optimum T/C value ([1]; day 168, Balixafortide 20 mg/kg s.c., p > 0.05) [%]	T/C value ([1]; Balixafortide 20 mg/kg s.c.) [%]	affinity for the human CXCR4 receptor (human CXCR4 receptor)	binding to other potential target receptors [2]	T/C value ([1]; Paclitaxel 10 mg/kg i.v. twice weekly, Balixafortide 20 mg/kg s.c.) [%]
C[C@@H]1NC(=O)[C@H](Cc2c[nH]cn2)NC(=O)[C@H](Cc2ccc(O)cc2)NC(=O)[C@@H]2CCCN2C(=O)[C@H]2CCCN2C(=O)[C@H](CCCCN)NC(=O)[C@H](CCC(N)=O)NC(=O)[C@H](Cc2ccc(O)cc2)NC(=O)[C@@H]2CSSC[C@H](NC1=O)C(=O)N[C@@H](CO)C(=O)N[C@@H](C)C(=O)N1CCC[C@@H]1C(=O)N[C@@H](CCN)C(=O)N[C@@H](CCCNC(=N)N)C(=O)N[C@@H](Cc1ccc(O)cc1)C(=O)N2 [Balixafortide, cyclo(-Tyr-His-Ala-Cys-Ser-Ala-^DPro-Dab-Arg-Tyr-Cys-Tyr-Gln-Lys-^DPro-Pro-) having a disulfide bond between Cys^4 and Cys^11]	progressive disease	79	107	significant affinity	general lack of significant binding	–
CC(=O)O[C@H]1C(=O)[C@@]2(C)[C@H]([C@H](OC(=O)c3ccccc3)[C@]3(O)C[C@H](OC(=O)[C@H](O)[C@@H](NC(=O)c4ccccc4)c4ccccc4)C(C)=C1C3(C)C)[C@]1(OC(C)=O)CO[C@@H]1C[C@@H]2O [Paclitaxel]	stable disease	–	–	–	–	42

From patent EP4000613A1, “PHARMACEUTICAL COMBINATIONS COMPRISING A PEPTIDE CXCR4 INHIBITOR AND A TAXANE FOR TREATING CANCER” (Polyphor AG, priority 2020, dated 2022)
